Experiments:
Assay type in all cases: cell-based
Details in all cases: HEK-293T; 1 μM inhibitor, HEK293T cells
AXL = AXL (Homo sapiens, UniProt P30530)
Description: (§1) For plate preparation, a transfection mix was prepared in white 384-well small-volume plates (Greiner, cat. no. 784075) by preplating 3 μL of 20 μL/mL FuGene HD (Promega, cat. no. E2311), diluted in an Opti-MEM medium (Gibco, cat. no. 11058-021). One μL of DNA from both DNA vector source plates of the K192 kit was added using an Echo 550 acoustic dispenser (Beckman Coulter). The mix was incubated for 30 min, and 6 μL of HEK293T cells in an Opti-MEM medium was added. The proteins were allowed to express for 20 h. After expression, Tracer K10 was added using the concentrations recommended in the K192 technical manual and a 1 μM inhibitor was added to every second well. […] Five μL of substrate solution was added to every well, and filtered luminescence was measured on a PHERAstar plate reader (BMG Labtech) equipped with a luminescence filter pair (450 nm BP filter (donor) and a 610 nm LP filter (acceptor)). For every kinase, occupancy was calculated and plotted using GraphPad Prism 10 (Table S5).

MET = MET (Homo sapiens, UniProt P08581)
Description: as §1

MKNK2 = MKNK2 (Homo sapiens, UniProt Q9HBH9)
Description: as §1

MARK4 = MARK4 (Homo sapiens, UniProt Q96L34)
Description: as §1

CHEK2 = CHEK2 (Homo sapiens, UniProt O96017)
Description: as §1

CDK3 = CDK3 (Homo sapiens, UniProt Q00526)
Description: as §1

CDK18 = CDK18 (Homo sapiens, UniProt Q07002)
Description: as §1

CSNK2A2 = CSNK2A2 (Homo sapiens, UniProt P19784)
Description: as §1

CDK6 = CDK6 (Homo sapiens, UniProt Q00534)
Description: as §1

PRKAA1 = PRKAA1 (Homo sapiens, UniProt Q13131)
Description: as §1

CDKL5 = CDKL5 (Homo sapiens, UniProt O76039)
Description: as §1

STK16 = STK16 (Homo sapiens, UniProt O75716)
Description: as §1

CDK17 = CDK17 (Homo sapiens, UniProt Q00537)
Description: as §1

MUSK = MUSK (Homo sapiens, UniProt O15146)
Description: as §1

FGFR4 = FGFR4 (Homo sapiens, UniProt P22455)
Description: as §1

EPHA4 = EPHA4 (Homo sapiens, UniProt P54764)
Description: as §1

TIE1 = TIE1 (Homo sapiens, UniProt P35590)
Description: as §1

MERTK = MERTK (Homo sapiens, UniProt Q12866)
Description: as §1

MAP4K2 = MAP4K2 (Homo sapiens, UniProt Q12851)
Description: as §1

ULK1 = ULK1 (Homo sapiens, UniProt O75385)
Description: as §1

CDK16 = CDK16 (Homo sapiens, UniProt Q00536)
Description: as §1

MAST4 = MAST4 (Homo sapiens, UniProt O15021)
Description: as §1

HIPK4 = HIPK4 (Homo sapiens, UniProt Q8NE63)
Description: as §1

ITK = ITK (Homo sapiens, UniProt Q08881)
Description: as §1

LATS1 = LATS1 (Homo sapiens, UniProt O95835)
Description: as §1

NIM1K = NIM1K (Homo sapiens, UniProt Q8IY84)
Description: as §1

TNNI3K = TNNI3K (Homo sapiens, UniProt Q59H18)
Description: as §1

STK38 = STK38 (Homo sapiens, UniProt Q15208)
Description: as §1

RET = RET (Homo sapiens, UniProt P07949)
Description: as §1

EPHB4 = EPHB4 (Homo sapiens, UniProt P54760)
Description: as §1

STK33 = STK33 (Homo sapiens, UniProt Q9BYT3)
Description: as §1

MAPK11 = MAPK11 (Homo sapiens, UniProt Q15759)
Description: as §1

CDK9 = CDK9 (Homo sapiens, UniProt P50750)
Description: as §1

CDK7 = CDK7 (Homo sapiens, UniProt P50613)
Description: as §1

MLTK = MLTK (Homo sapiens, UniProt Q9NYL2)
Description: as §1

NTRK1 = NTRK1 (Homo sapiens, UniProt P04629)
Description: as §1

DAPK2 = DAPK2 (Homo sapiens, UniProt Q9UIK4)
Description: as §1

Sequence of MUSK (O15146 24-869): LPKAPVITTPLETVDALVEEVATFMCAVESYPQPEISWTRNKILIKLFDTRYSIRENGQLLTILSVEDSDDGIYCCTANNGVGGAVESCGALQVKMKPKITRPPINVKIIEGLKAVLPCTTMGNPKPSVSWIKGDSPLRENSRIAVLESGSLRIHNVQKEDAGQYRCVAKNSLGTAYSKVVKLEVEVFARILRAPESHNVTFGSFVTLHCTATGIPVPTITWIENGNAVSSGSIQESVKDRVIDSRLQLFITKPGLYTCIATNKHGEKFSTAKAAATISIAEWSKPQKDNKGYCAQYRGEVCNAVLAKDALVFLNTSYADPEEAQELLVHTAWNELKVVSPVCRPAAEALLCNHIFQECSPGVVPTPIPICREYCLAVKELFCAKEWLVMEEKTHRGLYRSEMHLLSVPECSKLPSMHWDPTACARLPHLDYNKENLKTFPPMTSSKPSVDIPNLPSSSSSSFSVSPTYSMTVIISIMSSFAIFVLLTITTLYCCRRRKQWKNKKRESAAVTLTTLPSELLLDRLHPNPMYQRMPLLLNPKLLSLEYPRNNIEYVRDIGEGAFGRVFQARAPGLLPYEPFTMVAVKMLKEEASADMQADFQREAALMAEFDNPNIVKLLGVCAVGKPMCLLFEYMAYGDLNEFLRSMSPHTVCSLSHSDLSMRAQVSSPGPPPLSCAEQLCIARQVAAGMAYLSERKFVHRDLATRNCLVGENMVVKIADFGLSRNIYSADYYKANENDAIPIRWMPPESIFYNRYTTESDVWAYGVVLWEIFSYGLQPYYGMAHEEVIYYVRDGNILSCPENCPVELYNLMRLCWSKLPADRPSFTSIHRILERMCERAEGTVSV
Sequence of EPHA4 (P54764 20-986): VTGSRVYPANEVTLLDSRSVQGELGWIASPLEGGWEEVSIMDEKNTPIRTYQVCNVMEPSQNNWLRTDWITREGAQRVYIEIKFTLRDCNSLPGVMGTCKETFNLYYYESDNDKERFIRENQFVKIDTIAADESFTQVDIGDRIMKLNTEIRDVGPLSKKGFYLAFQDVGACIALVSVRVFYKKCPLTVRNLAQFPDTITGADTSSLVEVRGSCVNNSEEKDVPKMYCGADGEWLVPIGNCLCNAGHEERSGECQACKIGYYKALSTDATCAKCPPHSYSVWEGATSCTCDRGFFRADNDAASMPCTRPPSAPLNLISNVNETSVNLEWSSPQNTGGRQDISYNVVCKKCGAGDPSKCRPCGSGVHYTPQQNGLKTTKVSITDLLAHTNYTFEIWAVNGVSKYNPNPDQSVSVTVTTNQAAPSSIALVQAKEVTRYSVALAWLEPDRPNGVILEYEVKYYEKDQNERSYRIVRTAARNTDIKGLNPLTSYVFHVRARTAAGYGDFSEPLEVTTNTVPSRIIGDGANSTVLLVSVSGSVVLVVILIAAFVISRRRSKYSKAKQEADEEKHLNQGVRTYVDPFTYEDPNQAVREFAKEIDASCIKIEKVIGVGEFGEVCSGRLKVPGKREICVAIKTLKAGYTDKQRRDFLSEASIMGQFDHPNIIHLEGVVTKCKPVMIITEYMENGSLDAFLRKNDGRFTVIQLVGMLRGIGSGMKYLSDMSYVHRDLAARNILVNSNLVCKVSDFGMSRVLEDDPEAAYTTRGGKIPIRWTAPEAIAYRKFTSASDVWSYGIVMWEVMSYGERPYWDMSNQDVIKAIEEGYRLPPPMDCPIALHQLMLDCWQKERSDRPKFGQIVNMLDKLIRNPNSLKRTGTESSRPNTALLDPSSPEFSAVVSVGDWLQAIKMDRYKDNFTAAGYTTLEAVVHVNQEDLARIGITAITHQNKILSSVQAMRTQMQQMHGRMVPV
Sequence of CSNK2A2 (P19784 whole entry): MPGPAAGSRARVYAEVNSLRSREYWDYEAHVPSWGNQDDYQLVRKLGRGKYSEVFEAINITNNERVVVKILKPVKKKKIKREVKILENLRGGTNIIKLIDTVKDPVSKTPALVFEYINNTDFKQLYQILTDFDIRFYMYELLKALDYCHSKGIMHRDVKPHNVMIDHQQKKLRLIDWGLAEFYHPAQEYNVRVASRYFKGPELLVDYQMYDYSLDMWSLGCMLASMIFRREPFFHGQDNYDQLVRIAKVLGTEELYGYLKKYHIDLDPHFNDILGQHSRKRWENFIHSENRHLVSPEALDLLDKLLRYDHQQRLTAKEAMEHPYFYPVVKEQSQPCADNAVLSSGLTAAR
Sequence of MAP4K2 (Q12851 whole entry): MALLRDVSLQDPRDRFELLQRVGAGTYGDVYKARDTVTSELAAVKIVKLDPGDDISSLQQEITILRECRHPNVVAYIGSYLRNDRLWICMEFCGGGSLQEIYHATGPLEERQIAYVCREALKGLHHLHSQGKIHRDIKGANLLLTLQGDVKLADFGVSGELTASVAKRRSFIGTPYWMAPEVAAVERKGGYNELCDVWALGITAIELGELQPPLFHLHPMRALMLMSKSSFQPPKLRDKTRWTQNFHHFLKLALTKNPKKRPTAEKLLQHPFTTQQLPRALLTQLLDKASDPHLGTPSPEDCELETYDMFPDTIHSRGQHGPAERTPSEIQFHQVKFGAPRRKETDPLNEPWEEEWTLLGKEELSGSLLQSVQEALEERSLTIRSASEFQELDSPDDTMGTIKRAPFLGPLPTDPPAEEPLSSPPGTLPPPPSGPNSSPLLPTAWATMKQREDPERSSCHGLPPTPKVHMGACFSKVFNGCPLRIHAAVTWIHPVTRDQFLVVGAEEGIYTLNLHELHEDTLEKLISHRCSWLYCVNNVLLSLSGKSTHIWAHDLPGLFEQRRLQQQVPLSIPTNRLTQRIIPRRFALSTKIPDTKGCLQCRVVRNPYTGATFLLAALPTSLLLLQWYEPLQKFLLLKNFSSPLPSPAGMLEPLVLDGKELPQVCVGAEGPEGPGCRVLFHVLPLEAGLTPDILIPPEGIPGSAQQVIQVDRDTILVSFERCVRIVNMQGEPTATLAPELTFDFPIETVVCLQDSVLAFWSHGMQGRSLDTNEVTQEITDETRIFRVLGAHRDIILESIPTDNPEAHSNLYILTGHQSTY
Sequence of MET (P08581 25-1390): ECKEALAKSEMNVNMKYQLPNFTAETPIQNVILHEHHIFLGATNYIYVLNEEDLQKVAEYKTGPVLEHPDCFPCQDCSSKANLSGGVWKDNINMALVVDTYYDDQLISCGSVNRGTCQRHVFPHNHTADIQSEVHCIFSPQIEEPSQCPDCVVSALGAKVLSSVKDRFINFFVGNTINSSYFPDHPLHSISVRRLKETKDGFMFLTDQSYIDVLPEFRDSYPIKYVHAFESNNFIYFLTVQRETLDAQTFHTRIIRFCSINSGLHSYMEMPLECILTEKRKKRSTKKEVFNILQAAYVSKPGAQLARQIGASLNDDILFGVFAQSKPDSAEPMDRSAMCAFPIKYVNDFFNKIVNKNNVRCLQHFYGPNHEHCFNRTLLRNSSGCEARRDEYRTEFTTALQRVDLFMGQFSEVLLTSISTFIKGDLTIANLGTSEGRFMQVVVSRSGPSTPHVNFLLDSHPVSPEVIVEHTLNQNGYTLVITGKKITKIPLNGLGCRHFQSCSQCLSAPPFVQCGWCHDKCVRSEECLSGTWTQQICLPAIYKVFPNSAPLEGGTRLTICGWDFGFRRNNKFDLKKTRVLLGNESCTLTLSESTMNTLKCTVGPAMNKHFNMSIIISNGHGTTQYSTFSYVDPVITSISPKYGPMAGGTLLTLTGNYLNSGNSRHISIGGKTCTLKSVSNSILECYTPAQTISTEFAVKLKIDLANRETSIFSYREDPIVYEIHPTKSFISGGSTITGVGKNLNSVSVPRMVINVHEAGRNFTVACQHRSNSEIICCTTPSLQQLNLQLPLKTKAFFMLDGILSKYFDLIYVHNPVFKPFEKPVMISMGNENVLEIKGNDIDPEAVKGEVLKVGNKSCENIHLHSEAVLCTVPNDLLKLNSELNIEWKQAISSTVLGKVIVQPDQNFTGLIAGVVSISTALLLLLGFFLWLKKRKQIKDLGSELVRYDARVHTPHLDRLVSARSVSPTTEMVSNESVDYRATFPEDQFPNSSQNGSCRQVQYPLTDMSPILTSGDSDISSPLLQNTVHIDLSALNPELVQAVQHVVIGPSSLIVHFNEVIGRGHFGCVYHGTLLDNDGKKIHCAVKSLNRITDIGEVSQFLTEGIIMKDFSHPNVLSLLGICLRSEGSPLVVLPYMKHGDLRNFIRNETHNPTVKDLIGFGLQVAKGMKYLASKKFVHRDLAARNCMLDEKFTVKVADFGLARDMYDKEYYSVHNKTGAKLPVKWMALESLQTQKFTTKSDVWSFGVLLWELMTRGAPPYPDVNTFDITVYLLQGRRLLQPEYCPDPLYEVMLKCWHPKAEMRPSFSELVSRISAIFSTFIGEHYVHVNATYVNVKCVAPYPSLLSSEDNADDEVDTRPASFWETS
Sequence of STK16 (O75716 whole entry): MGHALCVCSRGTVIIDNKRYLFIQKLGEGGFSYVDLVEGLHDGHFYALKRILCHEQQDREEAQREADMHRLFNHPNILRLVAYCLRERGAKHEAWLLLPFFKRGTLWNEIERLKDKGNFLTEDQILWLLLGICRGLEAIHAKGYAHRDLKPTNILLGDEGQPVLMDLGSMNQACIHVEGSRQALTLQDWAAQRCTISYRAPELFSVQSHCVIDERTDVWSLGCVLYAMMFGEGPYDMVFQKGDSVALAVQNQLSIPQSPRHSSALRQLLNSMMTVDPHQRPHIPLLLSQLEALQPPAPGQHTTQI
Sequence of DAPK2 (Q9UIK4 whole entry): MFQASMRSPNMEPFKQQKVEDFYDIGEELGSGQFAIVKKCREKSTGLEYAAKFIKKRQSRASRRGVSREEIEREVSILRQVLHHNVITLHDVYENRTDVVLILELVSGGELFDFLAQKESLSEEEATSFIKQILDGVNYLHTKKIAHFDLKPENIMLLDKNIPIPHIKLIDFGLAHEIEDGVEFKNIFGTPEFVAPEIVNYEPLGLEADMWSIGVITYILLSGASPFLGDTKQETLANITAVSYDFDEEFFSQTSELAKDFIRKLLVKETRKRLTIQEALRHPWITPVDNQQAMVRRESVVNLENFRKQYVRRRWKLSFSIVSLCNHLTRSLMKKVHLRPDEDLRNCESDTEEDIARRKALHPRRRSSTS

What does the source list for `CN1C(=O)[C@@H](N2CCc3c(nn(Cc4ccccc4)c3C(N)=O)C2=O)COc2cc(Cl)ccc21` [Compound 10, (S)-2-benzyl-6-(8-chloro-5-methyl-4-oxo-2,3,4,5-tetrahydrobenzo[b][1,4]oxazepin-3-yl)-7-oxo-4,5,6,7-tetrahydro-2H-pyrazolo[3,4-c]pyridine-3-carboxamide]?
receptor occupancy at 1 µM (AXL): 2.28%; receptor occupancy at 1 µM (MET): 4.93%; receptor occupancy at 1 µM (MKNK2): 2.69%; receptor occupancy at 1 µM (MARK4): 8.31%; receptor occupancy at 1 µM (CHEK2): -1.73%; receptor occupancy at 1 µM (CDK3): -5.32%; receptor occupancy at 1 µM (CDK18): -5.62%; receptor occupancy at 1 µM (CSNK2A2): 1.08%; receptor occupancy at 1 µM (CDK6): -16.9%; receptor occupancy at 1 µM (PRKAA1): -3.79%; receptor occupancy at 1 µM (CDKL5): 1.05%; receptor occupancy at 1 µM (STK16): -1.63%; receptor occupancy at 1 µM (CDK17): 4.13%; receptor occupancy at 1 µM (MUSK): -11.5%; receptor occupancy at 1 µM (FGFR4): 5%; receptor occupancy at 1 µM (EPHA4): -5.78%; receptor occupancy at 1 µM (TIE1): -1.51%; receptor occupancy at 1 µM (MERTK): 0.31%; receptor occupancy at 1 µM (MAP4K2): -0.43%; receptor occupancy at 1 µM (ULK1): 4.3%; receptor occupancy at 1 µM (CDK16): -2.19%; receptor occupancy at 1 µM (MAST4): -4.29%; receptor occupancy at 1 µM (HIPK4): 1.53%; receptor occupancy at 1 µM (ITK): 2.24%; receptor occupancy at 1 µM (LATS1): -16%; receptor occupancy at 1 µM (NIM1K): 5.36%; receptor occupancy at 1 µM (TNNI3K): -0.0649%; receptor occupancy at 1 µM (STK38): 4.93%; receptor occupancy at 1 µM (RET): -7.79%; receptor occupancy at 1 µM (EPHB4): 4.16%; receptor occupancy at 1 µM (STK33): 3.58%; receptor occupancy at 1 µM (MAPK11): -1.99%; receptor occupancy at 1 µM (CDK9): -4.57%; receptor occupancy at 1 µM (CDK7): -11.3%; receptor occupancy at 1 µM (MLTK): -2.56%; receptor occupancy at 1 µM (NTRK1): 0.821%; receptor occupancy at 1 µM (DAPK2): -5.62%
